US8192962B2, “Processes for detecting toxic substances” (Daikin Industries, Ltd., priority 2001, dated 2012)

Test system: Mitochondria-located protein genes
Assay: DNA chip mRNA expression in yeast, mitochondria-located protein genes (Table 2)
Format: cell-based, Saccharomyces cerevisiae S288C
Conditions: cells incubated two hours with the chemical substance
Outline: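 Values are treated/untreated fluorescence ratios from a whole-genome yeast DNA chip hybridized over 12 hours at 65° C with Cy3- or Cy5-labelled cDNA from poly(A) mRNA. Log-phase S288C yeast in YPD at 25° C had received a single toxic chemical for two hours, dosed to slow growth without killing.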

**Q.** For Na2As [(1)], which “The level of expressed mRNA in the presence of chemical substance/The level of expressed mRNA in the absence of chemical substance” value (yeast gene YAL039C) is on record?
**A.** 1.1

**Q.** And the “The level of expressed mRNA in the presence of chemical substance/The level of expressed mRNA in the absence of chemical substance” value (yeast gene YBL022C)?
**A.** 0.4

**Q.** And the “The level of expressed mRNA in the presence of chemical substance/The level of expressed mRNA in the absence of chemical substance” value (yeast gene YBL030C)?
**A.** 1.0

**Q.** And the “The level of expressed mRNA in the presence of chemical substance/The level of expressed mRNA in the absence of chemical substance” value (yeast gene YBL038W)?
**A.** 1.0

**Q.** What about the “The level of expressed mRNA in the presence of chemical substance/The level of expressed mRNA in the absence of chemical substance” value (yeast gene YBL099W) of the same substance?
**A.** 0.8

**Q.** And the “The level of expressed mRNA in the presence of chemical substance/The level of expressed mRNA in the absence of chemical substance” value (yeast gene YBR003W)?
**A.** 0.9

**Q.** What about the “The level of expressed mRNA in the presence of chemical substance/The level of expressed mRNA in the absence of chemical substance” value (yeast gene YBR044C) of the same substance?
**A.** 0.8

**Q.** And the “The level of expressed mRNA in the presence of chemical substance/The level of expressed mRNA in the absence of chemical substance” value (yeast gene YBR091C)?
**A.** 1.1

**Q.** And the “The level of expressed mRNA in the presence of chemical substance/The level of expressed mRNA in the absence of chemical substance” value (yeast gene YBR122C)?
**A.** 0.9

**Q.** What about the “The level of expressed mRNA in the presence of chemical substance/The level of expressed mRNA in the absence of chemical substance” value (yeast gene YBR185C) of the same substance?
**A.** 1.2

**Q.** And the “The level of expressed mRNA in the presence of chemical substance/The level of expressed mRNA in the absence of chemical substance” value (yeast gene YBR221C)?
**A.** 0.8

**Q.** What about the “The level of expressed mRNA in the presence of chemical substance/The level of expressed mRNA in the absence of chemical substance” value (yeast gene YBR251W) of the same substance?
**A.** 1.0

**Q.** And the “The level of expressed mRNA in the presence of chemical substance/The level of expressed mRNA in the absence of chemical substance” value (yeast gene YBR282W)?
**A.** 1.0

**Q.** What about the “The level of expressed mRNA in the presence of chemical substance/The level of expressed mRNA in the absence of chemical substance” value (yeast gene YCL057W) of the same substance?
**A.** 0.6

**Q.** What about the “The level of expressed mRNA in the presence of chemical substance/The level of expressed mRNA in the absence of chemical substance” value (yeast gene YCR046C) of the same substance?
**A.** 1.0

**Q.** What about the “The level of expressed mRNA in the presence of chemical substance/The level of expressed mRNA in the absence of chemical substance” value (yeast gene YCR083W) of the same substance?
**A.** 1.1

**Q.** What about the “The level of expressed mRNA in the presence of chemical substance/The level of expressed mRNA in the absence of chemical substance” value (yeast gene YDL067C) of the same substance?
**A.** 1.8

**Q.** And the “The level of expressed mRNA in the presence of chemical substance/The level of expressed mRNA in the absence of chemical substance” value (yeast gene YDL181W)?
**A.** 1.3

**Q.** What about the “The level of expressed mRNA in the presence of chemical substance/The level of expressed mRNA in the absence of chemical substance” value (yeast gene YDL198C) of the same substance?
**A.** 1.4

**Q.** What about the “The level of expressed mRNA in the presence of chemical substance/The level of expressed mRNA in the absence of chemical substance” value (yeast gene YDR079W) of the same substance?
**A.** 1.3

**Q.** What about the “The level of expressed mRNA in the presence of chemical substance/The level of expressed mRNA in the absence of chemical substance” value (yeast gene YDR178W) of the same substance?
**A.** 2.0

**Q.** And the “The level of expressed mRNA in the presence of chemical substance/The level of expressed mRNA in the absence of chemical substance” value (yeast gene YDR231C)?
**A.** 1.1

**Q.** What about the “The level of expressed mRNA in the presence of chemical substance/The level of expressed mRNA in the absence of chemical substance” value (yeast gene YDR258C) of the same substance?
**A.** 1.6

**Q.** What about the “The level of expressed mRNA in the presence of chemical substance/The level of expressed mRNA in the absence of chemical substance” value (yeast gene YDR298C) of the same substance?
**A.** 1.3

**Q.** What about the “The level of expressed mRNA in the presence of chemical substance/The level of expressed mRNA in the absence of chemical substance” value (yeast gene YDR347W) of the same substance?
**A.** 1.1

**Q.** What about the “The level of expressed mRNA in the presence of chemical substance/The level of expressed mRNA in the absence of chemical substance” value (yeast gene YDR377W) of the same substance?
**A.** 1.3

**Q.** What about the “The level of expressed mRNA in the presence of chemical substance/The level of expressed mRNA in the absence of chemical substance” value (yeast gene YDR529C) of the same substance?
**A.** 1.8

**Q.** What about the “The level of expressed mRNA in the presence of chemical substance/The level of expressed mRNA in the absence of chemical substance” value (yeast gene YEL024W) of the same substance?
**A.** 1.3

**Q.** And the “The level of expressed mRNA in the presence of chemical substance/The level of expressed mRNA in the absence of chemical substance” value (yeast gene YEL039C)?
**A.** 1.1

**Q.** And the “The level of expressed mRNA in the presence of chemical substance/The level of expressed mRNA in the absence of chemical substance” value (yeast gene YER178W)?
**A.** 0.8

**Q.** What about the “The level of expressed mRNA in the presence of chemical substance/The level of expressed mRNA in the absence of chemical substance” value (yeast gene YFL016C) of the same substance?
**A.** 0.8

**Q.** What about the “The level of expressed mRNA in the presence of chemical substance/The level of expressed mRNA in the absence of chemical substance” value (yeast gene YGL018C) of the same substance?
**A.** 1.1

**Q.** What about the “The level of expressed mRNA in the presence of chemical substance/The level of expressed mRNA in the absence of chemical substance” value (yeast gene YGL187C) of the same substance?
**A.** 1.5

**Q.** What about the “The level of expressed mRNA in the presence of chemical substance/The level of expressed mRNA in the absence of chemical substance” value (yeast gene YGL191W) of the same substance?
**A.** 1.7

**Q.** And the “The level of expressed mRNA in the presence of chemical substance/The level of expressed mRNA in the absence of chemical substance” value (yeast gene YGR008C)?
**A.** 2.1

**Q.** What about the “The level of expressed mRNA in the presence of chemical substance/The level of expressed mRNA in the absence of chemical substance” value (yeast gene YGR028W) of the same substance?
**A.** 1.4

**Q.** And the “The level of expressed mRNA in the presence of chemical substance/The level of expressed mRNA in the absence of chemical substance” value (yeast gene YGR062C)?
**A.** 0.9

**Q.** What about the “The level of expressed mRNA in the presence of chemical substance/The level of expressed mRNA in the absence of chemical substance” value (yeast gene YGR076C) of the same substance?
**A.** 1.3

**Q.** And the “The level of expressed mRNA in the presence of chemical substance/The level of expressed mRNA in the absence of chemical substance” value (yeast gene YGR082W)?
**A.** 1.0

**Q.** And the “The level of expressed mRNA in the presence of chemical substance/The level of expressed mRNA in the absence of chemical substance” value (yeast gene YGR174C)?
**A.** 1.1

**Q.** And the “The level of expressed mRNA in the presence of chemical substance/The level of expressed mRNA in the absence of chemical substance” value (yeast gene YGR244C)?
**A.** 1.0

**Q.** What about the “The level of expressed mRNA in the presence of chemical substance/The level of expressed mRNA in the absence of chemical substance” value (yeast gene YHR008C) of the same substance?
**A.** 1.3

**Q.** What about the “The level of expressed mRNA in the presence of chemical substance/The level of expressed mRNA in the absence of chemical substance” value (yeast gene YIL155C) of the same substance?
**A.** 1.0

**Q.** What about the “The level of expressed mRNA in the presence of chemical substance/The level of expressed mRNA in the absence of chemical substance” value (yeast gene YJL096W) of the same substance?
**A.** 1.0

**Q.** And the “The level of expressed mRNA in the presence of chemical substance/The level of expressed mRNA in the absence of chemical substance” value (yeast gene YJL102W)?
**A.** 1.1

**Q.** What about the “The level of expressed mRNA in the presence of chemical substance/The level of expressed mRNA in the absence of chemical substance” value (yeast gene YJL133W) of the same substance?
**A.** 1.0

**Q.** What about the “The level of expressed mRNA in the presence of chemical substance/The level of expressed mRNA in the absence of chemical substance” value (yeast gene YJL166W) of the same substance?
**A.** 2.1

**Q.** What about the “The level of expressed mRNA in the presence of chemical substance/The level of expressed mRNA in the absence of chemical substance” value (yeast gene YJL180C) of the same substance?
**A.** 0.9

**Q.** What about the “The level of expressed mRNA in the presence of chemical substance/The level of expressed mRNA in the absence of chemical substance” value (yeast gene YJR045C) of the same substance?
**A.** 0.5

**Q.** What about the “The level of expressed mRNA in the presence of chemical substance/The level of expressed mRNA in the absence of chemical substance” value (yeast gene YJR077C) of the same substance?
**A.** 1.1
